Experiments:
Experiment in all cases: NCI-60 SRB screening (one-dose and five-dose)
Format in all cases: cell-based, human
Settings in all cases: 48 h
NCI-H322M = tested on: NCI-H322M
How it was run: (§1)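 Growth inhibition is scored with sulforhodamine B after 48 h of continuous compound exposure. An MG_MID averages each parameter over the whole cell panel, insensitive lines being counted at the top tested concentration.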

SF-539 = tested on: SF-539
How it was run: (§2)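 Spectrophotometric SRB end point; 48-h drug exposure; percent of untreated-control growth reported.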

HOP-62 = tested on: HOP-62
How it was run: as §2

786-0 = tested on: 786-0
How it was run: as §2

UACC-257 = tested on: UACC-257
How it was run: as §2

HCC-2998 = tested on: HCC-2998
How it was run: (§3)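 After a 48-h incubation with compound, cellular protein was stained with SRB and growth estimated by spectrophotometry relative to untreated controls.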

NCI-H522 = tested on: NCI-H522
How it was run: as §1

A549/ATCC = tested on: A549/ATCC
How it was run: as §2

DU-145 = tested on: DU-145
How it was run: as §3

HL-60(TB) = tested on: HL-60(TB)
How it was run: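 Compounds were added at a single concentration and cultures incubated for 48 h. Growth was measured with sulforhodamine B protein staining, read spectrophotometrically and expressed as percent of untreated controls.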

MALME-3M = tested on: MALME-3M
How it was run: as §2

SK-MEL-5 = tested on: SK-MEL-5
How it was run: as §2

SNB-19 = tested on: SNB-19
How it was run: as §2

SF-295 = tested on: SF-295
How it was run: as §2

MCF7 = tested on: MCF7
How it was run: as §2

OVCAR-4 = tested on: OVCAR-4
How it was run: as §3

SN12C = tested on: SN12C
How it was run: as §1

SF-268 = tested on: SF-268
How it was run: as §1

SK-MEL-28 = tested on: SK-MEL-28
How it was run: as §3

MDA-MB-435 = tested on: MDA-MB-435
How it was run: as §2

MDA-MB-468 = tested on: MDA-MB-468
How it was run: as §2

HCT-116 = tested on: HCT-116
How it was run: as §2

CAKI-1 = tested on: CAKI-1
How it was run: as §3

KM-12 = tested on: KM-12
How it was run: as §2

BT-549 = tested on: BT-549
How it was run: as §1

NCI/ADR-RES = tested on: NCI/ADR-RES
How it was run: as §2

OVCAR-5 = tested on: OVCAR-5
How it was run: as §2

NCI-H460 = tested on: NCI-H460
How it was run: as §2

T-47D = tested on: T-47D
How it was run: as §3

MDA-MB-231/ATCC = tested on: MDA-MB-231/ATCC
How it was run: as §2

TK-10 = tested on: TK-10
How it was run: as §1

NCI-H226 = tested on: NCI-H226
How it was run: as §2

SW-620 = tested on: SW-620
How it was run: as §2

HCT-15 = tested on: HCT-15
How it was run: as §2

HS 578T = tested on: HS 578T
How it was run: as §3

ACHN = tested on: ACHN
How it was run: as §2

HT29 = tested on: HT29
How it was run: as §3

K-562 = tested on: K-562
How it was run: as §1

CCRF-CEM = tested on: CCRF-CEM
How it was run: as §3

PC-3 = tested on: PC-3
How it was run: as §2

[1] = Homo sapiens, five dose 0.01–100 μM

Question: Which “Growth Percent” value (NCI-H322M; 10 μM) does the source give for COC(=O)[C@]12CC[C@@H](C(=O)/C=C/c3cccnc3)[C@@H]1[C@H]1CC[C@@H]3[C@@]4(C)C/C(=C\c5cccnc5)C(=O)C(C)(C)[C@@H]4CC[C@@]3(C)[C@]1(C)CC2 [Compound 7, methyl 2,30-bis-(3-pyridinylidene)-3,20-dioxo-lup-28-oate] here?
Answer: −80.71%

Question: What about the GI50 (NCI-H322M; [1]) of the same molecule?
Answer: 1480 nM

Question: What about the GI50 (SF-539; Homo sapiens, SF-539, five dose 0.01–100 μM) of the same molecule?
Answer: 240 nM

Question: And the “Growth Percent” value (SF-539; SF-539, 10 μM)?
Answer: −96.48%

Question: And the “Growth Percent” value (HOP-62; HOP-62, 10 μM)?
Answer: −85.57%

Question: What about the GI50 (HOP-62; Homo sapiens, HOP-62, five dose 0.01–100 μM) of the same molecule?
Answer: 690 nM

Question: And the “Growth Percent” value (786-0; 786-0, 10 μM)?
Answer: −92.26%

Question: What about the GI50 (786-0; Homo sapiens, 786-0, five dose 0.01–100 μM) of the same molecule?
Answer: 310 nM

Question: And the GI50 (UACC-257; Homo sapiens, UACC-257, five dose 0.01–100 μM)?
Answer: 270 nM

Question: And the “Growth Percent” value (UACC-257; UACC-257, 10 μM)?
Answer: −58.90%

Question: What about the “Growth Percent” value (HCC-2998; HCC-2998, 10 μM) of the same molecule?
Answer: −55.45%

Question: And the GI50 (HCC-2998; Homo sapiens, HCC-2998, five dose 0.01–100 μM)?
Answer: 670 nM

Question: What about the GI50 (NCI-H522; Homo sapiens, NCI-H522, five dose 0.01–100 μM) of the same molecule?
Answer: 660 nM

Question: And the “Growth Percent” value (NCI-H522; NCI-H522, 10 μM)?
Answer: −59.72%

Question: What about the “Growth Percent” value (A549/ATCC; 10 μM) of the same molecule?
Answer: −9.34%

Question: What about the GI50 (A549/ATCC; [1]) of the same molecule?
Answer: 390 nM

Question: What about the “Growth Percent” value (DU-145; DU-145, 10 μM) of the same molecule?
Answer: −67.84%

Question: What about the GI50 (DU-145; Homo sapiens, DU-145, five dose 0.01–100 μM) of the same molecule?
Answer: 1530 nM

Question: What about the “Growth Percent” value (HL-60(TB); 10 μM) of the same molecule?
Answer: −30.17%

Question: And the GI50 (HL-60(TB); [1])?
Answer: 250 nM

Question: What about the “Growth Percent” value (MALME-3M; 10 μM) of the same molecule?
Answer: −95.19%

Question: What about the GI50 (MALME-3M; [1]) of the same molecule?
Answer: 210 nM

Question: And the GI50 (SK-MEL-5; Homo sapiens, SK-MEL-5, five dose 0.01–100 μM)?
Answer: 460 nM

Question: And the “Growth Percent” value (SK-MEL-5; SK-MEL-5, 10 μM)?
Answer: −98.85%

Question: What about the GI50 (SNB-19; Homo sapiens, SNB-19, five dose 0.01–100 μM) of the same molecule?
Answer: 690 nM

Question: And the “Growth Percent” value (SNB-19; SNB-19, 10 μM)?
Answer: −87.62%

Question: What about the GI50 (SF-295; Homo sapiens, SF-295, five dose 0.01–100 μM) of the same molecule?
Answer: 440 nM

Question: And the “Growth Percent” value (SF-295; SF-295, 10 μM)?
Answer: −98.52%

Question: And the GI50 (MCF7; Homo sapiens, MCF7, five dose 0.01–100 μM)?
Answer: 380 nM

Question: And the “Growth Percent” value (MCF7; MCF7, 10 μM)?
Answer: −54.19%

Question: What about the GI50 (OVCAR-4; Homo sapiens, OVCAR-4, five dose 0.01–100 μM) of the same molecule?
Answer: 340 nM

Question: What about the “Growth Percent” value (OVCAR-4; OVCAR-4, 10 μM) of the same molecule?
Answer: −39.20%

Question: What about the “Growth Percent” value (SN12C; 10 μM) of the same molecule?
Answer: −77.80%

Question: And the GI50 (SN12C; [1])?
Answer: 390 nM

Question: What about the GI50 (SF-268; Homo sapiens, SF-268, five dose 0.01–100 μM) of the same molecule?
Answer: 1010 nM

Question: What about the “Growth Percent” value (SF-268; SF-268, 10 μM) of the same molecule?
Answer: −80.80%

Question: And the GI50 (SK-MEL-28; Homo sapiens, SK-MEL-28, five dose 0.01–100 μM)?
Answer: 240 nM

Question: What about the “Growth Percent” value (SK-MEL-28; SK-MEL-28, 10 μM) of the same molecule?
Answer: −96.28%

Question: What about the GI50 (MDA-MB-435; Homo sapiens, MDA-MB-435, MDA-B-435, five dose 0.01–100 μM) of the same molecule?
Answer: 200 nM

Question: What about the “Growth Percent” value (MDA-MB-435; MDA-MB-435, 10 μM) of the same molecule?
Answer: −69.71%

Question: And the GI50 (MDA-MB-468; Homo sapiens, MDA-MB-468, five dose 0.01–100 μM)?
Answer: 270 nM

Question: And the “Growth Percent” value (MDA-MB-468; MDA-MB-468, 10 μM)?
Answer: −76.12%

Question: What about the “Growth Percent” value (HCT-116; HCT-116, 10 μM) of the same molecule?
Answer: −87.45%

Question: What about the GI50 (HCT-116; Homo sapiens, HCT-116, five dose 0.01–100 μM) of the same molecule?
Answer: 200 nM

Question: What about the “Growth Percent” value (CAKI-1; CAKI-1, 10 μM) of the same molecule?
Answer: −78.75%

Question: What about the GI50 (CAKI-1; Homo sapiens, CAKI-1, five dose 0.01–100 μM) of the same molecule?
Answer: 1090 nM

Question: And the GI50 (KM-12; Homo sapiens, KM12, KM-12, five dose 0.01–100 μM)?
Answer: 1080 nM

Question: What about the “Growth Percent” value (KM-12; KM-12, 10 μM) of the same molecule?
Answer: −74.98%

Question: And the “Growth Percent” value (BT-549; BT-549, 10 μM)?
Answer: −92.12%

Question: What about the GI50 (BT-549; Homo sapiens, BT-549, five dose 0.01–100 μM) of the same molecule?
Answer: 220 nM

Question: What about the “Growth Percent” value (NCI/ADR-RES; 10 μM) of the same molecule?
Answer: −39.38%

Question: And the GI50 (NCI/ADR-RES; [1])?
Answer: 430 nM

Question: And the GI50 (OVCAR-5; Homo sapiens, OVCAR-5, five dose 0.01–100 μM)?
Answer: 410 nM

Question: And the “Growth Percent” value (OVCAR-5; OVCAR-5, 10 μM)?
Answer: −62.74%

Question: What about the GI50 (NCI-H460; Homo sapiens, NCI-H460, five dose 0.01–100 μM) of the same molecule?
Answer: 830 nM

Question: What about the “Growth Percent” value (NCI-H460; NCI-H460, 10 μM) of the same molecule?
Answer: −78.43%

Question: And the GI50 (T-47D; Homo sapiens, T47D, T -47D, five dose 0.01–100 μM)?
Answer: 430 nM

Question: What about the “Growth Percent” value (T-47D; T-47D, 10 μM) of the same molecule?
Answer: −43.57%

Question: And the “Growth Percent” value (MDA-MB-231/ATCC; 10 μM)?
Answer: −81.32%

Question: And the GI50 (MDA-MB-231/ATCC; [1])?
Answer: 470 nM

Question: And the GI50 (TK-10; Homo sapiens, TK-10, five dose 0.01–100 μM)?
Answer: 650 nM

Question: What about the “Growth Percent” value (TK-10; TK-10, 10 μM) of the same molecule?
Answer: −60.49%

Question: What about the GI50 (NCI-H226; Homo sapiens, NCI-H226, five dose 0.01–100 μM) of the same molecule?
Answer: 1480 nM

Question: What about the “Growth Percent” value (NCI-H226; NCI-H226, 10 μM) of the same molecule?
Answer: −44.44%

Question: And the GI50 (SW-620; Homo sapiens, SW-620, five dose 0.01–100 μM)?
Answer: 300 nM

Question: What about the “Growth Percent” value (SW-620; SW-620, 10 μM) of the same molecule?
Answer: −67.32%

Question: And the “Growth Percent” value (HCT-15; HCT-15, 10 μM)?
Answer: −46.22%

Question: What about the GI50 (HCT-15; Homo sapiens, HCT-15, five dose 0.01–100 μM) of the same molecule?
Answer: 240 nM

Question: What about the “Growth Percent” value (HS 578T; 10 μM) of the same molecule?
Answer: −49.05%

Question: And the GI50 (HS 578T; [1])?
Answer: 460 nM

Question: What about the “Growth Percent” value (ACHN; 10 μM) of the same molecule?
Answer: −100.00%

Question: And the GI50 (ACHN; [1])?
Answer: 190 nM

Question: What about the “Growth Percent” value (HT29; HT29, 10 μM) of the same molecule?
Answer: −45.47%

Question: And the GI50 (HT29; Homo sapiens, HT-29, HT29, five dose 0.01–100 μM)?
Answer: 320 nM

Question: And the GI50 (K-562; Homo sapiens, K562, K-562, five dose 0.01–100 μM)?
Answer: 330 nM

Question: What about the “Growth Percent” value (K-562; K-562, 10 μM) of the same molecule?
Answer: −21.61%

Question: What about the “Growth Percent” value (CCRF-CEM; 10 μM) of the same molecule?
Answer: 0.95%

Question: And the GI50 (CCRF-CEM; [1])?
Answer: 310 nM

Question: What about the GI50 (PC-3; Homo sapiens, PC-3, five dose 0.01–100 μM) of the same molecule?
Answer: 420 nM

Question: What about the “Growth Percent” value (PC-3; PC-3, 10 μM) of the same molecule?
Answer: −14.12%

— publication PMC8509773, “3-Pyridinylidene Derivatives of Chemically Modified Lupane and Ursane Triterpenes as Promising Anticancer Agents by Targeting Apoptosis” (International Journal of Molecular Sciences, 2021)
